Measured values as given in US10238710B2, “Peptide having anti-inflammatory, osteogenic and hair growth promoting activities, and use of same” (CAREGEN CO., LTD., priority 2014, dated 2019).

Assays:
DKK-1 = test: Western blotting of DKK-1 with hair loss causing hormone DHT; assay type: cell-based, human; conditions: HFDPC, 48 hours
Procedure: The cells were treated with DHT and the peptides for 48 hours, and then subjected to western blotting with respect to DKK-1 using specific antibodies, thereby observing the expression of DKK-1.
The human hair follicle dermal papilla cells were seeded on a 6-well plate at a density of 1×10^5 cells/well. The cells were stabilized by incubation overnight, and then treated with 5 μg/ml DHT (Sigma Aldrich) together with the peptides at different concentrations (1 μg/ml and 10 μg/ml) for 48 hours. The cells were treated with the cell lysis buffer to obtain a lysate, followed by protein quantification, and then western blotting was performed with respect to DKK-1 using anti-DKK-1 antibody (Santa Cruz Biotechnology, USA).

[1] = tested on: human umbilical vein endothelial cells (HUVEC); test: Cell proliferation assay (SRB), HUVEC; assay type: cell-based; conditions: 1, 10 and 50 μg/ml, 72 hours
Procedure: (§1) In order to observe the cell proliferation effect on human hair follicle dermal papilla cells, human hair follicle germinal matrix cells, and human umbilical vein endothelial cells, which are main hair cells, each type of cells were seeded on a 96-well plate at a density of 3×10^3 cells/well, followed by incubation under conditions of 37° C. and 5% CO2 for 24 hours. After the medium was exchanged with the same culture medium completely excluding serum, the cells were treated with the peptides at different concentrations (1 μg/ml, 10 μg/ml, and 50 μg/ml), followed by incubation under the same conditions for 72 hours. After the incubation supernatant was removed, the cells were immobilized using ethanol, and washed three times with phosphate buffer saline (PBS). The wash solution was removed, and the cells were stained through the treatment with colorimetric SRB solution. After the cells were sufficiently washed with 1% acetic acid, the cells were observed using a microscope to observe the state of living cells. The absorbance was read at UV light of 560 nm, thereby measuring the survival conditions of cells

[2] = tested on: human hair follicle dermal papilla cells (HFDPC); test: Cell proliferation assay (SRB), HFDPC; assay type: cell-based; conditions: 1, 10 and 50 μg/ml, 72 hours
Procedure: as §1

Phospho-ERK (pERK) = test: Western blotting of cell signaling material, ERK phosphorylation; assay type: cell-based, human; conditions: HFDPC, 1 and 10 μg/ml, 30 minutes and 60 minutes
Procedure: (§2) In order to observe the changes in the phosphorylation of ERK and the expression of PI3K, which are main signaling materials involved in cell proliferation in the human hair follicle dermal papilla cells, the cells were treated with the peptides of the present invention for 30 minutes and 60 minutes, and then subjected to western blotting using specific antibodies, thereby observing the pERK and PI3K changes. The test was carried out using anti-pERK antibody (Santa Cruz Biotechnology, USA) and anti-pPI3K antibody (Santa Cruz Biotechnology, USA).
(§3) The cells were treated with the cell lysis buffer to obtain a lysate, followed by protein quantification, and then western blotting was performed with respect to Phospho-ERK (pERK), PI3K, and β-catenin.

Phospho-PI3K = test: Western blotting using osteoblasts (PI3K phosphorylation); assay type: cell-based; conditions: mouse osteoblast line, 50 μg/ml, 15 minutes
Procedure: The cells were treated with the peptides at 50 μg/ml for 15 minutes (positive control: HGF 50 ng/ml). The cells were treated with the cell lysis buffer to obtain a lysate, followed by protein quantification, and then western blotting was performed with respect to Phospho-PI3K (P-PI3K) using anti-pPI3K antibody (Santa Cruz Biotechnology, USA).

Ha3-II and keratin 14 = test: RT-PCR of keratinocyte differentiation markers in HaCaT cells; assay type: cell-based, human; conditions: HaCaT, 0.1, 1 and 10 μg/ml, 24 hours
Procedure: The cells were treated with the peptides at different concentrations (0.1 μg/ml, 1 μg/ml, and 10 μg/ml), and then incubated in an incubator at 37° C. for 24 hours. […] RT-PCR was carried out using primers of respective markers (Ha3-II and keratin 14) and PCR pre-mix (Intron) to measure the changes in the expression of the markers.
Target-specific primer sequences used in PCR for keratinocyte differentiation markers were as follows: Ha3-II forward primer sequence, 5′-[…]-3′ and Ha3-II reverse primer, 5′-[…]-3′ (annealing temperature, 60° C.); Keratin14 forward primer sequence, 5′-[…]-3′ and Keratin14 reverse primer, 5′-[…]-3′ (annealing temperature, 60° C.)

KGF = test: Western blotting of hair growth protein KGF; assay type: cell-based, human; conditions: HFDPC, 0.1-50 μg/ml, 24 hours
Procedure: (§4) In order to observe the changes in the expression of IGF1, KGF, and Wnt3a, which are proteins involved in the development of hair roots in the human hair follicle dermal papilla cells, the cells were treated with the peptides of the present invention for 24 hours, and then subjected to western blotting using specific antibodies, thereby observing the changes in hair growth-related proteins.
(§5) The cells were stabilized by the incubation overnight, and then treated with the peptides at different concentrations (0.1-50 μg/ml) for 24 hours. The cells were treated with the cell lysis buffer to obtain a lysate, followed by protein quantification, and then western blotting was performed with respect to IGF-1, KGF, and Wnt3a.
(§6) The test was carried out using anti-IGF-1 antibody (Santa Cruz Biotechnology, USA), anti-KGF antibody (Santa Cruz Biotechnology, USA), and anti-Wnt3a antibody (Santa Cruz Biotechnology, USA).

Wnt3a = test: Western blotting of hair growth protein Wnt3a; assay type: cell-based, human; conditions: HFDPC, 0.1-50 μg/ml, 24 hours
Procedure: as §4, §5, §6

[3] = tested on: human hair follicle germinal matrix cells (HFGMC); test: Cell proliferation assay (SRB), HFGMC; assay type: cell-based; conditions: 1, 10 and 50 μg/ml, 72 hours
Procedure: as §1

HGFR = molecular target: T1, HGFR (Homo sapiens, UniProt P08581); test: Receptor binding assay (HGFR), ELISA; conditions: peptide coated 50 μg/25 μl, O.D. 450 nm
T1 construct: purchased R&D Systems
Procedure: (§7) On an ELISA plate, 50 μg/25 μl peptide and 25 μl of a coating buffer (20 mM sodium phosphate pH 9.6) were added and mixed, and then incubated at 4° C. overnight. After washing three times with PBST (300 μl), the blocking with 200 μl of a blocking buffer (3% BSA) was carried out at room temperature for 2 hours. After washing three times with PBST (300 μl), HGFR (R&D Systems) was added at 0.5 μg/1 ml per well, followed by incubation at room temperature for 2 hours. After washing three times with PBST (300 μl), anti-human IgG-HRP was diluted at 1:1,000, which was then added at 100 μl per well, followed by incubation at room temperature for 2 hours. After washing three times with PBST (300 μl), 100 μl of TMB solution was added, followed by color development. 50 μl of a stop solution (3 N H2SO4) was added to stop the reaction, and then the absorbance was read at O.D. 450 nm.

IGF-1 = test: Western blotting of hair growth protein IGF-1; assay type: cell-based, human; conditions: HFDPC, 0.1-50 μg/ml, 24 hours
Procedure: as §4, §5, §6

IL-1β = IL-1β ELISA in THP-1 cells treated with TNF-α; assay type: cell-based, human; conditions: 10 μg/ml pre-treatment 30 minutes, 50 ng/ml TNF-α, 24 hours
Procedure: (§8) The human monocytes, THP-1 cells were seeded on a 24-well plate at a density of 2×10^6 cells/well. After incubation overnight, the cells were pre-treated with the samples at 10 μg/ml for 30 minutes, and treated with 50 ng/ml TNF-α, followed by incubation for 24 hours. The cell incubation medium was obtained, followed by centrifugation at 13,000 rpm for 10 minutes at 4° C., and then the supernatant was separated. ELISA was carried out using IL-1b and IL-8 ELISA kit (R&D system).

β-catenin = test: Western blotting of cell signaling material, β-catenin; assay type: cell-based, human; conditions: HFDPC, 1 and 10 μg/ml, 30 minutes and 60 minutes
Procedure: as §2, §3

TNFR = test: Receptor binding assay (TNFR), ELISA; conditions: peptide coated 50 μg/25 μl, O.D. 450 nm, positive control TNF-α
PI3K = test: Western blotting of cell signaling material, PI3K; assay type: cell-based, human; conditions: HFDPC, 1 and 10 μg/ml, 30 minutes and 60 minutes
Procedure: as §2, §3

IL-8 = IL-8 ELISA in THP-1 cells treated with TNF-α; assay type: cell-based, human; conditions: 10 μg/ml pre-treatment 30 minutes, 50 ng/ml TNF-α, 24 hours
Procedure: as §8

BMPR-IB = molecular target: T2, BMPR-IB (Homo sapiens, UniProt O00238); test: Receptor binding assay (BMPR), ELISA; conditions: peptide coated 50 μg/25 μl, O.D. 450 nm, positive control BMP4
T2 construct: purchased R&D Systems
Procedure: as §7, with “In” for “On”, “BMPR-IB” for “HGFR”, “determined” for “read”

Phospho-smad1/5/8 = test: Western blotting using osteoblasts (Smad1/5/8 phosphorylation); assay type: cell-based; conditions: mouse osteoblast line, 50 μg/ml, 15 minutes and 30 minutes
Procedure: The cells incubated overnight were incubated in a serum-free medium for 24 hours, and then treated with the peptide at 50 μg/ml for 15 minutes and 30 minutes (positive control; BMP4 50 ng/ml). The cells were treated with the cell lysis buffer to obtain a lysate, followed by protein quantification, and then western blotting was performed with respect to Phospho-smad1/5/8 (P-smad1/5/8) using anti-p-smad1/5/8 antibody (Santa Cruz Biotechnology, USA).

T2 sequence (O00238 14-502): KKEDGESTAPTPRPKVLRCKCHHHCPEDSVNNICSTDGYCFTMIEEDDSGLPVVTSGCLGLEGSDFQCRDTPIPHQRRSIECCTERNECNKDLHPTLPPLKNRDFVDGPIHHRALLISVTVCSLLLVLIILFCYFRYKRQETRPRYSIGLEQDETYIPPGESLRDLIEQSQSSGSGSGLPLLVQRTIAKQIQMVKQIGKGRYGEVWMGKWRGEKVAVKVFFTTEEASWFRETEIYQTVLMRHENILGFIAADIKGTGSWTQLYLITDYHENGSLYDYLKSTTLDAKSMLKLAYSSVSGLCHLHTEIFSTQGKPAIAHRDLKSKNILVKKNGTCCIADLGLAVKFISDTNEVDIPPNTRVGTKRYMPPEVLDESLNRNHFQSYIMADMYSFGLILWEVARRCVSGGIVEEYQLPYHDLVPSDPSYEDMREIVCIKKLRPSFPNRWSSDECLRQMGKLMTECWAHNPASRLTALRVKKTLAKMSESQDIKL
T1 sequence (P08581 25-1390): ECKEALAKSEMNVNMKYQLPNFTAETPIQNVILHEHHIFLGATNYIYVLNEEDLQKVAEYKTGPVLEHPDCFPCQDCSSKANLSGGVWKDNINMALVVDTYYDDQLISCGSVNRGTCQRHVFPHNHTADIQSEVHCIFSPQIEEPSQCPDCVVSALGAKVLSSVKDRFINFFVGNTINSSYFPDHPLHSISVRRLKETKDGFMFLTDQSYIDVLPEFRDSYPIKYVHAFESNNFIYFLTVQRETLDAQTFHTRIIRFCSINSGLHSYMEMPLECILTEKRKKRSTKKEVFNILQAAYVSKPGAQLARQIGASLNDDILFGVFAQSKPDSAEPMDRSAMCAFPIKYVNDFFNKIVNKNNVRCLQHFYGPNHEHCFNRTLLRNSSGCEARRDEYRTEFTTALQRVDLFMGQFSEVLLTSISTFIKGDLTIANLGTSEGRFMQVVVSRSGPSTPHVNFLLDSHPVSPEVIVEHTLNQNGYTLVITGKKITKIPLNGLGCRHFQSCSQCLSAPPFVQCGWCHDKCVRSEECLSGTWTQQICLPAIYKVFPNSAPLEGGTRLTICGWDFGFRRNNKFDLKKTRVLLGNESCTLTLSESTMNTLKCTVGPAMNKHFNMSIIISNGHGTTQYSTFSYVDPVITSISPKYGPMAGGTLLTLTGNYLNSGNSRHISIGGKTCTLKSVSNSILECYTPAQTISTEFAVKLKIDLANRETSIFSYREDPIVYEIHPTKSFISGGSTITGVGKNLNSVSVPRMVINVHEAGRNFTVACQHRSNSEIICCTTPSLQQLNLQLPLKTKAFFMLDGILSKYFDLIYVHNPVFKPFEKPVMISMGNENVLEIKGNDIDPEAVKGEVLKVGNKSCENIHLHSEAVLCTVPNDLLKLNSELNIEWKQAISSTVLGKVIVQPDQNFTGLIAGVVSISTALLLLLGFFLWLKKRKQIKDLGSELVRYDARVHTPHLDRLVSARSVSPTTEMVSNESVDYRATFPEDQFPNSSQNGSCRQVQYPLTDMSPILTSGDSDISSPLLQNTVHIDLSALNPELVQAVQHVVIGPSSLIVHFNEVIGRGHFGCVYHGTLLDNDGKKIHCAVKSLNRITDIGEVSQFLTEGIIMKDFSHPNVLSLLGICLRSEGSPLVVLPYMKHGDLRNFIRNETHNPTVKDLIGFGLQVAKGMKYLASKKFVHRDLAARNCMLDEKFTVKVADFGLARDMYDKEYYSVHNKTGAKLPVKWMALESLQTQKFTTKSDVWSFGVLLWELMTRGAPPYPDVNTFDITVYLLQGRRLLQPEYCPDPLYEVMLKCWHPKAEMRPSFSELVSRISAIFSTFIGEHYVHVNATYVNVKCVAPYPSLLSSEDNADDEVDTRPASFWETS

| Compound | expression of DKK-1 (DKK-1; treatment with DHT 5 μg/ml alone) | cell proliferation, HUVEC [1] | cell proliferation, HFDPC [2] | phosphorylation of ERK (Phospho-ERK (pERK)) | phosphorylation of PI3K by HGFR signal stimulation (Phospho-PI3K) | mRNA expression levels of differentiation markers Ha3-II and keratin 14 (Ha3-II and keratin 14) | expression of KGF (KGF) | expression of DKK-1 increased by DHT (DKK-1; 5 μg/ml DHT together with peptide 1 and 10 μg/ml) | expression of Wnt3a (Wnt3a) | cell proliferation, HFGMC [3] | binding affinity on HGFR (HGFR) | expression of IGF-1 (IGF-1) | expression of IL-1β increased by TNF-α treatment (IL-1β) | expression of β-catenin (β-catenin) | binding affinity to TNFR (TNFR) | level of PI3K (PI3K) | expression of IL-8 increased by TNF-α treatment (IL-8) | binding affinity on BMPR (BMPR-IB) | phosphorylation of Smad1/5/8 by BMPR signal stimulation (Phospho-smad1/5/8) |
| --- | --- | --- | --- | --- | --- | --- | --- | --- | --- | --- | --- | --- | --- | --- | --- | --- | --- | --- | --- |
| C[C@]12CCC(=O)C[C@@H]1CC[C@@H]1[C@@H]2CC[C@]2(C)[C@@H](O)CC[C@@H]12 [DHT, dihydrotestosterone, reference compound] | increased | – | – | – | – | – | – | – | – | – | – | – | – | – | – | – | – | – | – |
| NH2-Ala-Cys-Asp-Gly-Arg-Thr-Gln-Ala-Leu-Cys-COOH (H-ACDGRTQALC-OH; cysteine pairing not given here) [SEQ ID NO: 3] | – | increased in a concentration-dependent manner | increased in a concentration-dependent manner | increased | increased | keratinocyte differentiation promoting effect | increased | reduced | increased | increased in a concentration-dependent manner | high binding affinity | increased | inhibited | increased | high binding affinity | increased | inhibited | – | – |
| NH2-Ala-Cys-Phe-Thr-Arg-Thr-Ser-His-Ala-Cys-COOH (H-ACFTRTSHAC-OH; cysteine pairing not given here) [SEQ ID NO: 2] | – | – | – | – | – | – | – | – | – | – | – | – | inhibited | – | high binding affinity | – | inhibited | high binding affinity | increased |
